Where two headings read alike, the source gives them in different places.
Tests used:
Type in all cases: cell-based, human
H2030 = experiment: Non Small Cell Lung Cancer proliferation assay (Alamar Blue reduction), H2030; details: primary screening, 10 μM compound in 1% DMSO (v/v); for inhibition at 10 µM: Homo sapiens, NCI-H2030
Method: (§1) These cells have a doubling time of 1-2 days. All cell types are adherent and grow in colonies. The cells should be kept at a density between 50,000 cells/mL -500,000 cells/mL to provide for optimum growth and adequate nutrition. The cell line should be maintained at 37° C. in a humidified atmosphere with 5% CO2 in a sterile cell culture incubator.
(§2) Non Small Cell Lung Cancer Proliferation Assay.
(§3) High Controls for this assay are made by treating Non Small Cell Lung Cancer cells with 5 ul of 10% DMSO. [Final concentration in this assay is 1% DMSO].
(§4) Important Note: All compounds for testing in this assay should be done at the final concentration of 1% DMSO.
(§5) After addition, the cells are placed in cell culture incubator at 37° C. for 48 hours for complete treatment.
(§6) After drug treatment, cytotoxicity is measured by Alamar Blue reduction.
(§7) The cells are incubated for 48 hours at 37° C. to complete the Alamar Blue reduction.
(§8) The final step in the assay is to measure the amount of Alamar Blue reduction. […] The Alamar Blue fluorescence is measured at an excitation of 530 nm and emission of 590 nm.
(§9) For the NSCLC project, the cell based assay was screened against a small molecule library of approximately 200,000 compounds. The compound library is stored in our automated robotic freezer (Biophile) at −20° C. in 100% DMSO. Compound freeze and thaw cycles are kept to a minimum. […] This assay was performed on a fully automated linear track robotic platform (CRS F3 Robot System, Thermo Electron Corp., Ontario, Canada) utilizing several integrated peripherals for plate handling, liquid dispensing, and readout detection. […] The microplates are then placed at 37° C. for 48 hours to complete treatment of cells with compounds. Next, 5 ul of alamar blue was added using a liquid dispenser (Flexprop Precision Dispenser, Perkin Elmer, Mass., USA) and incubated for 48 hours at 37° C. The alamar blue prompt fluorescence was measured on Victor V (Victor^3 V, Perkin Elmer, Mass., USA) and output data files were loaded into ORIS (Oncology Research Informatics System, MSKCC, NY, USA), a screening data acquisition and analysis platform.
(§10) The dose response studies were done with the following standard procedure. First, the cells were counted and dispensed at 250 cells/well into 384-well microplates with compound. The cells were incubated for 48 hours at 37 C to complete treatment, and then alamar blue was added for an additional 48 hours. Finally, alamar blue reduction was measured and the data was loaded into ORIS, our data screening acquisition platform.

H3255 = experiment: Non Small Cell Lung Cancer proliferation assay (Alamar Blue reduction), H3255; details: primary screening, 10 μM compound in 1% DMSO (v/v); for inhibition at 10 µM: Homo sapiens, NCI-H3255
Method: as §1, §2, §3, §4, §5, §6, §7, §8, §9, §10

H1975 = experiment: Non Small Cell Lung Cancer proliferation assay (Alamar Blue reduction), H1975; details: primary screening, 10 μM compound in 1% DMSO (v/v); for inhibition at 10 µM: Homo sapiens, NCI-H1975
Method: as §1, §2, §3, §4, §5, §6, §7, §8, §9, §10

H1650 = experiment: Non Small Cell Lung Cancer proliferation assay (Alamar Blue reduction), H1650; details: primary screening, 10 μM compound in 1% DMSO (v/v); for inhibition at 10 µM: Homo sapiens, NCI-H1650
Method: as §1, §2, §3, §4, §5, §6, §7, §8, §9, §10

[1] = read-out: percentage inhibition H2030
[2] = read-out: percentage inhibition H3255
[3] = read-out: percentage inhibition H1975
[4] = read-out: percentage inhibition H1650
[5] = H2030, read-out: PRIMARY HTS [%] H2030 (percentage inhibition)
[6] = H3255, read-out: PRIMARY HTS [%] H3255 (percentage inhibition)
[7] = H1975, read-out: PRIMARY HTS [%] H1975 (percentage inhibition)
[8] = H1650, read-out: PRIMARY HTS [%] H1650 (percentage inhibition)

Q: Which results are given for N=c1c(-c2nc3ccccc3[nH]2)cc(C(=O)c2ccco2)nn1-c1ccccc1 [compound 181801]?
A: inhibition at 10 µM (H2030; [1]): -7%; inhibition at 10 µM (H3255; [2]): 7%; inhibition at 10 µM (H1975; [3]): 24%; inhibition at 10 µM (H1650; [4]): 13%

Q: Which results are given for O=c1ccc(Cl)nn1-c1ccccc1 [compound 195149]?
A: inhibition at 10 µM (H2030; [1]): -5%; inhibition at 10 µM (H3255; [2]): -19%; inhibition at 10 µM (H1975; [3]): 11%; inhibition at 10 µM (H1650; [4]): -4%

Q: Which inhibition at 10 µM (H2030; [5]) does the source give for Cc1ccc([N+](=O)[O-])cc1NC(=O)c1ccco1 [compound 107911] here?
A: 2%

Q: And the inhibition at 10 µM (H3255; [6])?
A: 7%

Q: And the inhibition at 10 µM (H1975; [7])?
A: -15%

Q: What about the inhibition at 10 µM (H1650; [8]) of the same molecule?
A: 8%

Q: What does the source list for O=c1c(Br)c(-n2cc(CO)nn2)cnn1-c1ccccc1 [compound 224256]?
A: inhibition at 10 µM (H2030; [1]): 1%; inhibition at 10 µM (H3255; [2]): 110%; inhibition at 10 µM (H1975; [3]): 102%; inhibition at 10 µM (H1650; [4]): 103%

Q: What does the source list for O=c1c(SCc2ccccc2)c(SCc2ccccc2)cnn1-c1ccccc1 [compound 208693]?
A: inhibition at 10 µM (H2030; [1]): -11%; inhibition at 10 µM (H3255; [2]): 0%; inhibition at 10 µM (H1975; [3]): -7%; inhibition at 10 µM (H1650; [4]): -6%

Q: Which inhibition at 10 µM (H2030; [1]) does the source give for CSc1cnn(-c2ccccc2)c(=O)c1Cl [compound 104185] here?
A: -2%

Q: And the inhibition at 10 µM (H3255; [2])?
A: 1%

Q: What about the inhibition at 10 µM (H1975; [3]) of the same molecule?
A: 22%

Q: What about the inhibition at 10 µM (H1650; [4]) of the same molecule?
A: -9%

Q: What does the source list for COc1ccc(N2CCN(Cc3ccc([N+](=O)[O-])o3)CC2)cc1 [compound 100588]?
A: inhibition at 10 µM (H2030; [5]): 5%; inhibition at 10 µM (H3255; [6]): 4%; inhibition at 10 µM (H1975; [7]): -14%; inhibition at 10 µM (H1650; [8]): -5%

Q: O=c1ccc(Cl)nn1-c1cccc(Br)c1 [compound 178393] was tested. Which inhibition at 10 µM (H2030; [1]) did it give?
A: -11%

Q: And the inhibition at 10 µM (H3255; [2])?
A: -4%

Q: And the inhibition at 10 µM (H1975; [3])?
A: 3%

Q: What about the inhibition at 10 µM (H1650; [4]) of the same molecule?
A: 8%

Q: Which inhibition at 10 µM (H2030; [5]) does the source give for O=C(Nc1ccc(NC(=O)c2ccc(Cl)cc2Cl)cc1)c1cc2ccccc2o1 [compound 109007] here?
A: 3%

Q: And the inhibition at 10 µM (H3255; [6])?
A: 1%

Q: What about the inhibition at 10 µM (H1975; [7]) of the same molecule?
A: -3%

Q: What about the inhibition at 10 µM (H1650; [8]) of the same molecule?
A: -6%

Q: For Cc1c(C(=O)c2ccccc2)nn(-c2ccccc2Cl)c(=N)c1C#N [compound 227247], which inhibition at 10 µM (H2030; [1]) is on record?
A: -1%

Q: What about the inhibition at 10 µM (H3255; [2]) of the same molecule?
A: 11%

Q: What about the inhibition at 10 µM (H1975; [3]) of the same molecule?
A: -9%

Q: And the inhibition at 10 µM (H1650; [4])?
A: -16%

Q: Which results are given for O=c1c2c(cnn1-c1ccccc1)SC(c1ccccc1)S2 (centres unmarked) [compound 182826]?
A: percentage inhibition H2030 (H2030): −11%; percentage inhibition H3255 (H3255): −13%; percentage inhibition H1975 (H1975): 12%; percentage inhibition H1650 (H1650): 13%

Q: Which results are given for CCCCSc1cnn(-c2ccccc2)c(=O)c1SCCCC [compound 224766]?
A: inhibition at 10 µM (H2030; [1]): 95%; inhibition at 10 µM (H3255; [2]): 24%; inhibition at 10 µM (H1975; [3]): -29%; inhibition at 10 µM (H1650; [4]): -12%

Q: Which results are given for Nc1ccc(NC(=O)c2ccco2)c(Cl)c1 [compound 82456]?
A: inhibition at 10 µM (H2030; [5]): -2%; inhibition at 10 µM (H3255; [6]): 2%; inhibition at 10 µM (H1975; [7]): -15%; inhibition at 10 µM (H1650; [8]): 6%

Q: What does the source list for COc1c(Cl)cnn(-c2ccc(Cl)c(C(F)(F)F)c2)c1=O [compound 174405]?
A: inhibition at 10 µM (H2030; [1]): -9%; inhibition at 10 µM (H3255; [2]): 32%; inhibition at 10 µM (H1975; [3]): 28%; inhibition at 10 µM (H1650; [4]): 13%

Q: CC1CN(C(=O)c2ccc([N+](=O)[O-])o2)CC(C)O1 (centres unmarked) [compound 77942] was tested. Which inhibition at 10 µM (H2030; [5]) did it give?
A: 6%

Q: And the inhibition at 10 µM (H3255; [6])?
A: 7%

Q: And the inhibition at 10 µM (H1975; [7])?
A: -2%

Q: What about the inhibition at 10 µM (H1650; [8]) of the same molecule?
A: 14%

Q: Cc1ccc(C(=O)Nc2cc([N+](=O)[O-])ccc2C)o1 [compound 66776] was tested. Which inhibition at 10 µM (H2030; [5]) did it give?
A: -3%

Q: What about the inhibition at 10 µM (H3255; [6]) of the same molecule?
A: 2%

Q: And the inhibition at 10 µM (H1975; [7])?
A: 2%

Q: And the inhibition at 10 µM (H1650; [8])?
A: 13%

Q: Which results are given for CCOC(=O)NCCOc1cnn(-c2ccccc2)c(=O)c1Cl [compound 201622]?
A: inhibition at 10 µM (H2030; [1]): 4%; inhibition at 10 µM (H3255; [2]): 33%; inhibition at 10 µM (H1975; [3]): -23%; inhibition at 10 µM (H1650; [4]): 5%

— patent US20100210649A1, “PYRIDAZINONES AND FURAN-CONTAINING COMPOUNDS” (Sloan-Kettering Institute for Cancer Research, priority 2006, published 2010)
